Test results taken from PMC9246766 (Pharmaceutical research, 2022).
Like-named read-outs stand apart in the source and are kept apart here.

Key:
OCT3 [1] = target: T1, OCT3 (Homo sapiens, UniProt O75751); assay: ASP+ uptake kinetics in HEK-293 cells overexpressing OCT3; type: cell-based; conditions: read-out: Km of OCT3-mediated ASP+ uptake; 2 min uptake, 37°C; OCT3-specific uptake (OCT3 minus empty vector)
T1 sequence (O75751 1-556): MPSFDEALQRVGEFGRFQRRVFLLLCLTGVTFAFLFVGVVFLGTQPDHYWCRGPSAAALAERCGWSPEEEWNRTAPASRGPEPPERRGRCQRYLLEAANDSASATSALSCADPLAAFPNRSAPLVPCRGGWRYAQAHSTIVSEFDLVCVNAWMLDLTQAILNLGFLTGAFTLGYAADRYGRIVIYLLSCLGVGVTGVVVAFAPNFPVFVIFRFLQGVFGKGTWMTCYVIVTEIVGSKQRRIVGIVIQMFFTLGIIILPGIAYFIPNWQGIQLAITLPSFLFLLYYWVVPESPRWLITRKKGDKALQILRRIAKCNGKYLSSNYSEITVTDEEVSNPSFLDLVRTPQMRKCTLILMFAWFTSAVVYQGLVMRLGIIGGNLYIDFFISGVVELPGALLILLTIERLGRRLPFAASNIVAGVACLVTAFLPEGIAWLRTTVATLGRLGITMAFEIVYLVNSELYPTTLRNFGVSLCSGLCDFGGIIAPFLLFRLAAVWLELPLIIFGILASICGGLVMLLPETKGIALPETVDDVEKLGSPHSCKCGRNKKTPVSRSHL

[2] = cited from earlier work; for FDA product insert: warnings, precautions and major adverse reactions: cardiovascular / CNS related, ref FDA product insert
[3] = plasma protein binding used for unbound CMAX; source not given; cited from earlier work
OCT3 [4] = target: T1, OCT3; assay: High throughput screen: inhibition of OCT3-mediated ASP+ uptake in HEK-293 cells stably expressing OCT3; type: cell-based; conditions: for inhibition at 20 µM: HEK293
OCT3 [5] = target: T1, OCT3; conditions: read-out: Experimental IC50; OCT3 inhibition, literature value; ref 1 (Bourdet et al., 2005); cited from earlier work
OCT3 [6] = target: T1, OCT3; assay: Predicted DDI potential: ratio of plasma CMAX (total or unbound) to predicted OCT3 IC50; conditions: unbound plasma CMAX over predicted OCT3 IC50
[7] = total maximum plasma concentration; ref http://www.micromedexsolutions.com/; cited from earlier work
OCT3 [8] = target: T1, OCT3; assay: IC50 determination against OCT3-mediated ASP+ uptake in HEK-293 cells overexpressing OCT3; type: cell-based
OCT3 [9] = target: T1, OCT3; assay: IC50 determination against OCT3-mediated [14C]metformin uptake in HEK-293 cells overexpressing OCT3; type: cell-based

| Km (OCT3 [1]) | IC50 (OCT3 [4]) | inhibition at 20 µM (OCT3 [4]) | Unbound CMAX/IC50 (OCT3 [6]) | IC50 (OCT3 [8]) | IC50 (OCT3 [9]) | SMILES | FDA product insert: warnings, precautions and major adverse reactions [2] | Neurological side effects ([2]; stated in discussion, ref Table SII, 60) | Protein binding [3] | IC50 (OCT3 [5]) | Cmax [7] | FDA product insert: warnings, precautions and major adverse reactions ([2]; listed as Trazodone) |
| --- | --- | --- | --- | --- | --- | --- | --- | --- | --- | --- | --- | --- |
| 33.3 µM |  |  |  |  |  | CN(C)c1ccc(/C=C/c2cc[n+](C)cc2)cc1 [ASP^+, 4-Di-1-ASP] |  |  |  |  |  |  |
|  | 9.9 µM | 66.9% | 28.0 |  |  | NC(N)=Nc1nc(CSCCC(N)=NS(N)(=O)=O)cs1 [famotidine] | Warnings and precautions: Central Nervous System (CNS) Adverse Reactions: Advise elderly patients and those with moderate and severe renal impairment of the risk of CNS adverse reactions, including confusion, delirium, hallucinations, disorientation, agitation, seizures, and lethargy. | neurological side effects | 10% | 6.7 ± 2 µM | 308 µM |  |
|  | < 5 µM | 94.5% | 0.15 | 5.2 µM | 2.5 µM | O=c1n(CCCN2CCN(c3cccc(Cl)c3)CC2)nc2ccccn12 [trazodone] | warnings and precautions related to cardiovascular side-effects |  | 90% |  | 7.6 µM | Warnings and precautions: Cardiac Arrhythmias: Increases the QT interval. Avoid use with drugs that also increase the QT interval and in patients with risk factors for prolonged QT interval. |
